Read-outs that look alike come from different tables or passages of the source.
Experiments:
MDA-MB-436 cells = test: Proliferation activity assay of MDA-MB-436 cells (CellTiter-Glo); format: cell-based; details: 4000 cells seeded, 6 days incubation, read-out: MDA-MB-436 proliferation inhibition IC50
Description: Complete culture medium was prepared and mixed thoroughly. The cells were resuscitated and cultured for about two passages to select a cell line in good growth condition. The cell culture flask was removed from the incubator. Cell adherence: the culture medium was aspirated, then the cells were washed once with trypsin to discard the waste liquid, and 3 mL of fresh trypsin was added to the culture flask for digestion. When the cells were loose to be detached from the wall of the flask, 8 mL of complete culture medium was added thereto to stop trypsin digestion and mixed gently. The cell suspension was transferred to a centrifuge tube with a pipette and centrifuged at 1000 rpm for 5 minutes. The supernatant was discarded. An appropriate volume of culture medium was added to the centrifuge tube and pipetted gently to resuspend the cells evenly. The cells were counted using a Vi-Cell XR cell counter. The cell suspension was adjusted to an appropriate concentration. The cell suspension was added to a 96-well plate at 100 µL/well. The details such as cell name, seeding density, and date were labelled, and the culture plate was placed in a CO2 incubator overnight.
The compound to be tested was prepared into a 10 mM stock solution, which was aliquoted and stored in a −20° C. freezer. The compound solution was added to a 96-well plate using HPD300. The plate was incubated in a CO2 incubator for a total of 6 days.
CellTiter-Glo buffer was melted at room temperature. The lyophilized CellTiter-Glo substrate was equilibrated to room temperature. CellTiter-Glo buffer was added to the CellTiter Glo substrate and mixed thoroughly. A cell plate was taken out and equilibrated to room temperature. 100 μL of mixed CellTiter Glo reagent was added to each well, and the mixture was shaken in the dark for 10 minutes, followed by incubation for 20 minutes. The culture plate was placed into an Enspire reading plate, and the luminescence reading results were recorded. […] A pharmacodynamic inhibition rate curve was plotted by using XLFit, and the IC50 value was calculated. The 4-parameter model [fit=(A+((B−A)/(1+((C/x)^D)))] was used.

PARP1 = PARP1 (Homo sapiens (Human), UniProt P09874); test: PARP1 enzymatic activity assay; format: biochemical; details: for PARP1/PARP2 inhibition Selectivity multiple N (N = IC50 (PARP2)/IC50 (PARP1)): ratio IC50 (PARP2)/IC50 (PARP1); for IC50: final PARP1 0.02 nM, DNA 0.8 nM, NAD+ 3.5 μM, 60 minutes
Chain of PARP1 (P09874 whole entry): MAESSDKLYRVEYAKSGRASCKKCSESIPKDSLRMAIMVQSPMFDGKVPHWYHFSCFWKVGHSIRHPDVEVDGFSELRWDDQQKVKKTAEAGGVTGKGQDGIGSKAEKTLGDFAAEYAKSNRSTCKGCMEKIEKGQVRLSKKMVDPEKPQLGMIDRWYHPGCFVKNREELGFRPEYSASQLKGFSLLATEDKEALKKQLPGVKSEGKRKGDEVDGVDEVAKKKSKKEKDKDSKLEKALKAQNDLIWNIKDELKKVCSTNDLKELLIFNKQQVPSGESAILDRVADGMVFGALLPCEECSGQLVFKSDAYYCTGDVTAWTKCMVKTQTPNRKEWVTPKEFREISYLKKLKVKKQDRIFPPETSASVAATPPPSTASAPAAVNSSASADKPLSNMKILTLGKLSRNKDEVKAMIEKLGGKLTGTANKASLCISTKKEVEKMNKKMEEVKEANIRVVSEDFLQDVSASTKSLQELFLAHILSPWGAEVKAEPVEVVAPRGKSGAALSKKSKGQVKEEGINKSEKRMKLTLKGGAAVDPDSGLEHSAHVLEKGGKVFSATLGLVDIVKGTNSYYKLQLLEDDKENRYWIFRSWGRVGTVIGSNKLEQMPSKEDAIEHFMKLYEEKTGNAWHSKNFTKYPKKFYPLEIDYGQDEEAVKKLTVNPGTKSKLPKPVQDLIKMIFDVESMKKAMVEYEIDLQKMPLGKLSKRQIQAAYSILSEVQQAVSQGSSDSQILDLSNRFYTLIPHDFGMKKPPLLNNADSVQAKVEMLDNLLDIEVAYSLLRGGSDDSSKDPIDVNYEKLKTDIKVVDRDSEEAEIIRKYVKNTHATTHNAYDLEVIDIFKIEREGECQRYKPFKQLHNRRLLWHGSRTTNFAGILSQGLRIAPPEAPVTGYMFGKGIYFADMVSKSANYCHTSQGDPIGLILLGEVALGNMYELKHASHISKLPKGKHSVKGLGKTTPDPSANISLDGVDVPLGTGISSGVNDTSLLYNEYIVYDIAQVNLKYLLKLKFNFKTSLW
Description: 2) After the coating was completed, the coating buffer was discarded.
After washing, the blocking buffer was discarded.
4) 1000× compound was prepared. 1 μL of compound was transferred to a 96-well plate containing 199 μL of reaction buffer (50 mM Tris-HCl (pH 7.5), 0.005% Tween-20, 0.01% BSA) and mixed well.
5) 25/10×PARP1-DNA solution was prepared with reaction buffer.
6) 25/10×NAD+ solution was prepared with reaction buffer.
8) Primary antibody was 2000-fold diluted with the blocking buffer. 20 μL of primary antibody was added to the reaction plate, which was incubated at room temperature for 1.5 hours.
9) The primary antibody was discarded.
10) Secondary antibody was 2000-fold diluted with the blocking buffer.
11) The secondary antibody was discarded.
The chemiluminescence value RLU was read with Envision.

PARP2 = PARP2 (Homo sapiens (Human), UniProt Q9UGN5); test: PARP2 enzymatic activity assay; format: biochemical; details: Biotin-NAD+ 2 μM, 60 minutes
Chain of PARP2 (Q9UGN5 whole entry): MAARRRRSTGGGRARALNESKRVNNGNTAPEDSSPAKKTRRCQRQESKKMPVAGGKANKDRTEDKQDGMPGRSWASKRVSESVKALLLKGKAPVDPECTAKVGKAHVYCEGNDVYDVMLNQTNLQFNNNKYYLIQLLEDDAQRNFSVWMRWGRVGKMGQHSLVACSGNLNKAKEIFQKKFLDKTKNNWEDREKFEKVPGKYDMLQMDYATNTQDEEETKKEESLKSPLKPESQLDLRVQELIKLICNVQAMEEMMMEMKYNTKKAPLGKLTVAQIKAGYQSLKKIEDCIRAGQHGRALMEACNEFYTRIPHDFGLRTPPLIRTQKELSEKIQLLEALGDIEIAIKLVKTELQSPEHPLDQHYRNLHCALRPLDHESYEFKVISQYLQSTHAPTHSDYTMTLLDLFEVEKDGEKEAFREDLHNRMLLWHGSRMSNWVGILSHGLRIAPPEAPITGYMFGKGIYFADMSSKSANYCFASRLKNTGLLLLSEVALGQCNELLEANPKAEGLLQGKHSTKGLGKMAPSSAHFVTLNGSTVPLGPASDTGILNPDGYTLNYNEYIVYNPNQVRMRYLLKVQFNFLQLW

[1] = Homo sapiens, MDA-MB-436, 144 h

Compound	IC50 (MDA-MB-436 cells; [1])	PARP1/PARP2 inhibition Selectivity multiple N (N = IC50 (PARP2)/IC50 (PARP1)) (PARP1)	IC50 (PARP2; final PARP2 […])	IC50 (PARP1)	IC50 (MDA-MB-436 cells)	IC50 (PARP2; final PARP2 1.5 nM)
CNC(=O)c1ccc(N2CCN(Cc3cnc4c5c(c(=O)[nH]c4c3)CCC5)[C@@H]3C[C@@H]32)cn1 (relative stereo) [Example 7, cis-N-methyl-5-(5-((6-oxo-6,7,8,9-tetrahydro-5H-cyclopenta[c][1,5]naphthyridin-3-yl)methyl)-2,5-diazabicyclo[4.1.0]heptan-2-yl)picolinamide]	13 nM					
CCc1cc2ncc(CN3CCN(c4ccc(C(=O)NC5CC5)nc4)[C@H]4CC[C@H]43)cc2[nH]c1=O (relative stereo) [Example 46, cis-N-cyclopropyl-5-(5-((7-ethyl-6-oxo-5,6-dihydro-1,5-naphthyridin-3-yl)methyl)-2,5-diazabicyclo[4.2.0]octan-2-yl)pyridine-2-carboxamide]	5 nM					
CCc1cc2ncc(CN3CCN(c4ccc(C(=O)NC)nc4)C4CCC43)cc2[nH]c1=O (centres unmarked) [Example 2, 5-(5-((7-ethyl-6-carbonyl-5,6-dihydro-1,5-naphthyridin-3-yl)methyl)-2,5-diazabicyclo[4.2.0]octan-2-yl)-N-methylpyridine-2-carboxamide]	5 nM	16				
CCc1cc2ncc(CN3CCN(c4ccc(C(=O)NC)nc4)[C@@H]4CC[C@H]43)cc2[nH]c1=O [Example 2-3, 5-((1R,6R)-5-((7-ethyl-6-carbonyl-5,6-dihydro-1,5-naphthyridin-3-yl)methyl)-2,5-diazabicyclo[4.2.0]octan-2-yl)-N-methylpyridine-2-carboxamide]		48				
CCc1cc2ncc(CN3CCN(c4ccc(C(=O)NC)nc4)[C@H]4CC[C@@H]43)cc2[nH]c1=O [Example 2-4, 5-((1S,6S)-5-((7-ethyl-6-carbonyl-5,6-dihydro-1,5-naphthyridin-3-yl)methyl)-2,5-diazabicyclo[4.2.0]octan-2-yl)-N-methylpyridine-2-carboxamide]	2 nM	40				
CCc1cc2nnc(CN3CCN(c4ccc(C(=O)NC)nc4)[C@@H]4C[C@@H]43)cc2[nH]c1=O [Example 5-1]		83	75 nM	0.9 nM		
CCc1cc2nnc(CN3CCN(c4ccc(C(=O)NC)nc4)C4C[C@H]43)cc2[nH]c1=O (some centres unmarked) [Example 5-2]		64	32 nM	0.5 nM		
CCc1cc2nnc(CN3CCN(c4ccc(C(=O)NC)nc4)C4C[C@H]43)cc2[nH]c1=O (some centres unmarked) [Example 5]		62	31 nM	0.5 nM		
CCc1cc2nnc(CN3CCN(c4ccc(C(=O)NC)nc4)[C@@H]4CC[C@@H]43)cc2[nH]c1=O [Example 10-1]		45	36 nM	0.8 nM		
CCc1cc2nnc(CN3CCN(c4ccc(C(=O)NC)nc4)C4CC[C@@H]43)cc2[nH]c1=O (some centres unmarked) [Example 10-2]		85	77 nM	0.9 nM	5 nM	
CCc1cc2nnc(CN3CCN(c4ccc(C(=O)NC)nc4)C4CC[C@H]43)cc2[nH]c1=O (some centres unmarked) [Example 10]	9 nM	105	105 nM	1 nM		
CCc1nc2ncc(CN3CCN(c4ccc(C(=O)NC)nc4)[C@H]4CC[C@H]43)cc2[nH]c1=O [Example 11-1, 5-((1S,6R)-5-((3-ethyl-2-oxo-1,2-dihydropyrido[2,3-b]pyrazin-7-yl)methyl)-2,5-diazabicyclo[4.2.0]octan-2-yl)-N-methylpicolinamide]		69	272 nM	3.9 nM		
CCc1nc2ncc(CN3CCN(c4ccc(C(=O)NC)nc4)[C@@H]4CC[C@@H]43)cc2[nH]c1=O [Example 11-2, 5-((1R,6S)-5-((3-ethyl-2-oxo-1,2-dihydropyrido[2,3-b]pyrazin-7-yl)methyl)-2,5-diazabicyclo[4.2.0]octan-2-yl)-N-methylpicolinamide]	9 nM	135		1.5 nM		202 nM
CNC(=O)c1ccc(N2CCN(Cc3cnc4c5c(c(=O)[nH]c4c3)CCC5)[C@@H]3CC[C@@H]32)cn1 [Example 12-1, N-methyl-5-[(1S,6R)-5-((6-oxo-5H,7H,8H,9H-cyclopenta[c][1,5]naphthyridin-3-yl)methyl)-2,5-diazabicyclo[4.2.0]octan-2-yl]pyridine-2-carboxamide]	15 nM	60		0.3 nM		18 nM
CNC(=O)c1ccc(N2CCN(Cc3cnc4cc(C5CC5)c(=O)[nH]c4c3)[C@@H]3CC[C@@H]32)cn1 [Example 16-2]	6 nM					
CCc1cc2ncc(CN3CCN(c4ccc(-c5nnc(C)[nH]5)nc4)[C@@H]4CC[C@@H]43)cc2[nH]c1=O [Example 29-2]		43	30 nM	0.7 nM	13 nM	
CNC(=O)c1ccc(N2CCN(Cc3cnc4cc(C(F)(F)F)c(=O)[nH]c4c3)[C@@H]3CC[C@@H]32)cn1 [Example 30-1, N-methyl-5-((1S,6R)-5-((6-oxo-7-(trifluoromethyl)-5,6-dihydro-1,5-naphthyridin-3-yl)methyl)-2,5-diazabicyclo[4.2.0]octan-2-yl)picolinamide]	2 nM					
CNC(=O)c1ccc(N2CCN(Cc3cnc4cc(OC)c(=O)[nH]c4c3)[C@H]3CC[C@H]32)cn1 [Example 33-1]		>45				
CNC(=O)c1ccc(N2CCN(Cc3cnc4cc(OC)c(=O)[nH]c4c3)[C@@H]3CCC32)cn1 (some centres unmarked) [Example 33-2]		>130	> 300 nM	2.3 nM		
CCc1cc2ncc(CN3CCN(c4ccc(C(=O)NC5CC5)nc4)[C@H]4CC[C@H]43)cc2[nH]c1=O [Example 46-1, N-cyclopropyl-5-((1S,6R)-5-((7-ethyl-6-oxo-5,6-dihydro-1,5-naphthyridin-3-yl)methyl)-2,5-diazabicyclo[4.2.0]octan-2-yl)picolinamide]	8 nM					
CCc1cc2ncc(CN3CCN(c4ccc(C(=O)NC5CC5)nc4)[C@@H]4CC[C@@H]43)cc2[nH]c1=O [Example 46-2, N-cyclopropyl-5-((1R,6S)-5-((7-ethyl-6-oxo-5,6-dihydro-1,5-naphthyridin-3-yl)methyl)-2,5-diazabicyclo[4.2.0]octan-2-yl)picolinamide]	2 nM					
CCc1cc2ncc(CN3CCN(c4ccc(C(=O)NC5CC5)nc4F)[C@H]4CC[C@H]43)cc2[nH]c1=O [Example 47-2, N-cyclopropyl-5-((1S,6R)-5-((7-ethyl-6-oxo-5,6-dihydro-1,5-naphthyridin-3-yl)methyl)-2,5-diazabicyclo[4.2.0]octan-2-yl)-6-fluoropicolinamide]	3 nM					
CCc1cc2ncc(CN3CCN(c4ccc(C(=O)NC5CCC5)nc4)[C@@H]4CC[C@@H]43)cc2[nH]c1=O [Example 48-1, N-cyclobutyl-5-((1R,6S)-5-((7-ethyl-6-oxo-5,6-dihydro-1,5-naphthyridin-3-yl)methyl)-2,5-diazabicyclo[4.2.0]octan-2-yl)picolinamide]	12 nM					
CCc1cc2ncc(CN3CCN(c4ccc(C(=O)NC5CCC5)nc4)[C@H]4CC[C@H]43)cc2[nH]c1=O [Example 48-2, N-cyclobutyl-5-((1S,6R)-5-((7-ethyl-6-oxo-5,6-dihydro-1,5-naphthyridin-3-yl)methyl)-2,5-diazabicyclo[4.2.0]octan-2-yl)picolinamide]	2 nM					

— patent publication US20250221987A1, “PIPERAZINO RING-CONTAINING DERIVATIVE, PHARMACEUTICALLY ACCEPTABLE SALT THEREOF, PREPARATION METHOD THEREFOR, AND APPLICATION THEREOF” (ACERAND THERAPEUTICS (HONG KONG) LIMITED, priority 2022, published 2025)
